Assay results as given in US20180296447A1, “BIOCIDAL COMPOSITIONS AND RELATED METHODS” (Imerys Filtration Minerals, Inc., priority 2015, published 2018).

Tested on: Streptococcus mutans UA159 (ATCC 700610)
Assay: Direct bacterial killing experiment, spiral plating viability
Type: cell-based
Protocol: A direct bacterial killing experiment was done using spiral plating to measure the viability of the Streptococcus mutans UA159 (ATCC 700610) (S. mutans). Streptococcus mutans is facultatively anaerobic, gram-positive coccus-shaped bacterium commonly found in the human oral cavity and is a significant contributor to tooth decay.
All of Examples 4-6 were measured blindly without any knowledge of their composition. This was accomplished by pipetting 1 ml of the diluted sample powder particles (100 mg/ml) into 3 ml of Tryptic Soy broth containing 1% sucrose (TSBS) and 20 ul of an overnight culture of S. mutans. The inoculated suspensions were incubated for 24 hours at 37° C. in 5% CO2, diluted 1:10 and 1:1000, and spiral plated onto blood agar plates. The colonies on the plates were counted in a Colony Forming Unit (CFU) after 24 hours of incubation. Regarding controls, 0.12% chlorhexidine (CHX) was used a positive control, and sterile water was used as a negative control.

[H]/N=C(\N/C(=N/[H])NCCCCCCNC(=N)NC(=N)Nc1ccc(Cl)cc1)Nc1ccc(Cl)cc1 [CHX control, chlorhexidine]
Inhibition of S. mutans in the viability assay (in words) (24 hours incubation): significantly inhibited
Mean (CFU/ml) (S. mutans, 1 ml of 100 mg/ml sample powder in 3 ml TSBS, 24 hours at 37° C., 5% CO2, CHX 0.12%): 1.67 × 10^2 ± 0.047 CFU/ml
